Type in all cases: cell-based
Assay [1] deals with Escherichia coli (E. coli—ATCC #8739). Nature of the assay: Synergy test, microtiter plate high resolution MIC assay, bacterium. The settings on record: E. coli 8739, M9GY medium; for MIC: Escherichia coli, read-out: QB: MIC of second component (B) acting alone. The source says:
(§1) One skilled in the art will recognize that the sensitivity of other microorganisms to the particular combinations will vary and, as a result, the concentrations, the ratios, for each, or both, of the compounds may vary from those detailed in these examples. The concentrations and ratios may also vary under different test conditions or with different test methods. One measure of synergy is the industrially accepted method described by Kull, […]. and Mayer, R. L., in Applied Microbiology 9:538-541 (1961), using the ratio determined by the formula: Qa/QA+Qb/QB=Synergy Index (“SI”) wherein: • QA=concentration of compound A (first component) in ppm, acting alone, which produced an end point (MIC of Compound A). • Qa=concentration of compound A in ppm, in the mixture, which produced an end point. • QB=concentration of compound B (second component) in ppm, acting alone, which produced an end point (MIC of Compound B). • Qb=concentration of compound B in ppm, in the mixture, which produced an end point. When the sum of Qa/QA and Qb/QB is greater than one, antagonism is indicated. […] The lower the SI, the greater is the synergy shown by that particular mixture. The minimum inhibitory concentration (MIC) of a microbicide is the lowest concentration tested under a specific set of conditions that prevents the growth of the tested microorganisms. Synergy tests were conducted using standard microtiter plate assays with media designed for optimal growth of the test microorganism. Minimal salt medium supplemented with 0.2% glucose and 0.1% yeast extract ([…] medium) was used for testing bacteria; Potato Dextrose Broth (PDB medium) was used for testing yeast and mold. In this method, a wide range of combinations of microbicides and other personal care raw materials was tested by conducting high resolution MIC assays in the presence of various concentrations of MIT, or BIT. […] The synergy of the combinations of the present invention was determined against a bacterium, Escherichia coli (E. coli-ATCC #8739), and/or a yeast, Candida albicans (C. albicans-ATCC 10231), and/or a mold, Aspergillus niger (A. niger-ATCC 16404). The bacteria were used at a concentration of about 5×10^6 bacteria per mL and the yeast and mold at 5×10^5 fungi per mL. These microorganisms are representative of natural contaminants in many consumer and industrial applications. […] (yeast and mold) or 30° C. (bacteria). […] In each test, First Component (A) was MIT and the Second Component (B) was the other microbicide, formulation ingredient, or raw material.

The subject of assay [2] is Candida albicans (C. albicans—ATCC 10231). Nature of the assay: Synergy test, microtiter plate high resolution MIC assay, yeast. The settings on record: for MIC: Candida albicans.
Excerpt: as §1

Assay [3] concerns Aspergillus niger (A. niger—ATCC 16404). Nature of the assay: Synergy test, microtiter plate high resolution MIC assay, mold. The following applies: for MIC: Aspergillus niger.
Excerpt: as §1

[4] abbreviates: C. albicans 10231, PDB medium, 2 days.
The mark [5] stands for this setting: A. niger 16404, PDB medium, 3 days.
[6] abbreviates: ATCC16404, 72 h, A. niger 16404, PDB medium, 3 days, read-out: QB: MIC of second component (B) acting alone.
Where [7] appears, read: C. albicans 10231, PDB medium, 3 days.
The mark [8] stands for this setting: A. niger 16404, PDB medium, 6 days.
The mark [9] stands for this setting: A. niger 16404, PDB medium, 10 days.
The mark [10] stands for this setting: C. albicans 10231, PDB medium, 1 day.
Where [11] appears, read: ATCC16404, 240 h, A. niger 16404, PDB medium, 10 days, read-out: QB: MIC of second component (B) acting alone.
Setting [12] is: ATCC10231, 48 h, C. albicans 10231, PDB medium, 2 days, read-out: QB: MIC of second component (B) acting alone.
[13] abbreviates: ATCC10231, 24 h, C. albicans 10231, PDB medium, 1 day, read-out: QB: MIC of second component (B) acting alone.

Like-named read-outs stand apart in the source and are kept apart here.

For the compound `O=C(O)/C=C\C(=O)O` [maleic acid, 2-butenedioic acid], the “SI (Synergy Index, Qa/QA+Qb/QB)” value in assay [1] (1 day) and in assay [2] (setting [4]) was 1.00 each time. The MIC in assay [1] (ATCC8739, 24 h, 1 day) is 8000 µg/mL.
On to `CC(O)COc1ccccc1` (stereo not shown) [phenoxypropanol, propylene glycol phenyl ether], for which the “SI (Synergy Index, Qa/QA+Qb/QB)” value in assay [3] (setting [5]) and in assay [2] (setting [7]) was 1.00 each time. The MIC in assay [3] (setting [6]) turned out to be 3000 µg/mL; in assay [2] (ATCC10231, 72 h, C. albicans 10231, PDB medium, 3 days, read-out: QB: MIC of second component (B) acting alone), 5000 µg/mL.
As for `O=c1[nH]sc2ccccc12` [BIT, 1,2-benzisothiazolin-3-one], the “SI (Synergy Index, Qa/QA+Qb/QB)” value in assay [3] (setting [5]), in assay [3] (setting [8]), in assay [3] (setting [9]), in assay [1] (1 day), in assay [1] (2 days) and in assay [1] (3 days) was 1.00 throughout. In addition, the “SI (Synergy Index, Qa/QA+Qb/QB)” value in assay [2] (setting [10]), in assay [2] (setting [4]) and in assay [2] (setting [7]) was 1.00 throughout. Also, the “QA: MIC of first component (A) acting alone” value in assay [3] (setting [8]) came out at 20 ppm; in assay [3] (setting [9]), 20 ppm; in assay [1] (1 day), 15 ppm; in assay [1] (2 days) it was 15 ppm; in assay [1] (3 days), 15 ppm; in assay [2] (setting [10]), 20 ppm.
For the compound `O=P(O)(O)O[C@H]1[C@H](OP(=O)(O)O)[C@@H](OP(=O)(O)O)[C@H](OP(=O)(O)O)[C@@H](OP(=O)(O)O)[C@H]1OP(=O)(O)O` [phytic acid, inositol hexaphosphoric acid], the “SI (Synergy Index, Qa/QA+Qb/QB)” value in assay [3] (setting [9]), in assay [1] (1 day) and in assay [2] (setting [4]) was 1.00 each time. The MIC in assay [3] (setting [11]) came out at 20000 µg/mL; in assay [1] (ATCC8739, 24 h, 1 day), 5000 µg/mL; in assay [2] (setting [12]), 3000 µg/mL.
Consider `CCCCCCCCCC(=O)O` [capric acid, decanoic acid], for which the “SI (Synergy Index, Qa/QA+Qb/QB)” value in assay [3] (setting [8]), in assay [1] (3 days) and in assay [2] (setting [4]) was 1.00 in each case. The minimum inhibitory concentration (MIC) stood at 5000 µg/mL in assay [3] (ATCC16404, 144 h, A. niger 16404, PDB medium, 6 days, read-out: QB: MIC of second component (B) acting alone); 10000 µg/mL in assay [1] (ATCC8739, 72 h, 3 days); 2000 µg/mL in assay [2] (setting [12]).
`O=C(O)CC(NC(CC(=O)O)C(=O)O)C(=O)O` (stereo not shown) [IDS, iminodisuccinate]: the “QB: MIC of second component (B) acting alone” value in assay [3] (setting [5]) came to 5000 ppm. Also, the “SI (Synergy Index, Qa/QA+Qb/QB)” value in assay [3] (setting [5]) and in assay [2] (setting [4]) was 1.00 in each case.
In the case of `CC(C(=O)O)N(CC(=O)O)CC(=O)O` (stereo not shown) [MDGA, methyl glycine diacetic acid], the “SI (Synergy Index, Qa/QA+Qb/QB)” value in assay [3] (setting [9]) and in assay [2] (setting [7]) was 1.00 in each case.
As to `O=C(O)CN(CCN(CC(=O)O)CC(=O)O)CCN(CC(=O)O)CC(=O)O` [DTPA, diethylene triamine pentacetic acid], the “QB: MIC of second component (B) acting alone” value was found to be 800 ppm in assay [3] (setting [5]), 2000 ppm in assay [3] (setting [8]) and 2000 ppm in assay [2] (setting [10]). Also, the “SI (Synergy Index, Qa/QA+Qb/QB)” value in assay [3] (setting [5]), in assay [3] (setting [8]) and in assay [2] (setting [10]) was 1.00 in each case.
With `CCC(=O)O` [propionic acid, ethanecarboxylic acid], the “SI (Synergy Index, Qa/QA+Qb/QB)” value in assay [3] (setting [9]), in assay [1] (1 day), in assay [2] (setting [10]) and in assay [2] (setting [4]) was 1.00 throughout. Also, the minimum inhibitory concentration (MIC) in assay [3] (setting [11]) was determined as 500 µg/mL; in assay [1] (ATCC8739, 24 h, 1 day), 5000 µg/mL; in assay [2] (setting [13]), 2000 µg/mL; in assay [2] (setting [12]), 2000 µg/mL.
For `CCCCCCCCC(O)CO` (stereo not shown) [decylene glycol, 1,2-decanediol], the “SI (Synergy Index, Qa/QA+Qb/QB)” value in assay [3] (setting [5]), in assay [2] (setting [10]) and in assay [2] (setting [4]) was 1.00 each time. The minimum inhibitory concentration (MIC) in assay [3] (setting [6]), in assay [2] (setting [13]) and in assay [2] (setting [12]) was 2000 µg/mL each time.
On to `COc1ccc(C(=O)O)cc1` [anisic acid, 4-methoxybenzoic acid], for which the “SI (Synergy Index, Qa/QA+Qb/QB)” value in assay [3] (setting [5]) and in assay [1] (1 day) was 1.00 each time. In addition, the minimal inhibitory concentration (MIC) is 2000 µg/mL in assay [3] (setting [6]) and 8000 µg/mL in assay [1] (ATCC8739, 24 h, 1 day).
`Cn1sccc1=O` [MIT, 2-methyl-4-isothiazolin-3-one]: the “QA: MIC of first component (A) acting alone” value in assay [3] (setting [5]) was 200 ppm. The “SI (Synergy Index, Qa/QA+Qb/QB)” value in assay [3] (setting [5]), in assay [3] (setting [8]), in assay [3] (setting [9]), in assay [2] (setting [10]), in assay [2] (setting [4]) and in assay [2] (setting [7]) was 1.00 throughout. Also, the minimal inhibitory concentration (MIC) in assay [3] (ATCC16404, 72 h, read-out: QA: MIC of first component (A) acting alone, A. niger 16404, PDB medium, 3 days) worked out at 300 µg/mL; in assay [3] (ATCC16404, 144 h, read-out: QA: MIC of first component (A) acting alone, A. niger 16404, PDB medium, 6 days) it was 300 µg/mL; in assay [3] (ATCC16404, 240 h, read-out: QA: MIC of first component (A) acting alone, A. niger 16404, PDB medium, 10 days) it was 300 µg/mL; in assay [2] (ATCC10231, 24 h, read-out: QA: MIC of first component (A) acting alone) it was 200 µg/mL; in assay [2] (ATCC10231, 48 h, read-out: QA: MIC of first component (A) acting alone) it was 200 µg/mL; in assay [2] (ATCC10231, 72 h, read-out: QA: MIC of first component (A) acting alone), 200 µg/mL.

Values taken from patent publication US8138212B2, “Synergistic microbicidal compositions” (Rohm and Haas Company, priority 2009, dated 2012).
